Experimental data taken from ChEMBL document CHEMBL1155602, “Three new scalarane sesterterpenoids from the Okinawan sponge Hyrtios erectus” (J Nat Prod, 2000).
Converted amounts (≈) assume the structure as drawn.

Test system: KB
Experiment: Antiproliferative activity against human KB cells
Format: functional, cell-based

Compound `CC1(C)CCC[C@]2(C)[C@H]3C[C@@H](O)[C@]4(C)C=C(C=O)CC[C@H]4[C@]3(C)CC[C@@H]12` has an IC50 of 2.82 µg/mL (≈ 7.86 µM).
